The text below walks through data of US20230270809A1, “VETERINARY COMPOSITIONS FOR THE TREATMENT AND/OR PREVENTION OF PROTOZOAN DISEASES AND METHODS OF PREPARATION THEREOF” (ADIFEED SP. Z O. O., priority 2020, published 2023).

The IC50 is the midpoint of a concentration-inhibition curve.

The subject of assay [1] is Euglena gracilis. Description: in vitro protozoicidal test on Euglena gracilis (watch glass, microscope). The format is cell-based. The note with it: concentration giving death of 100% of individuals within 3 minutes, in aqueous polysorbate 80 (0.05%).
Assay [2] relates to Gregarina blattarum. Description: in vitro protozoicidal test on gregarines isolated from cockroaches. The format is cell-based. The note with it: Ringer's solution; for LD100: lethal concentration for 100% of individuals within 3 minutes. An excerpt: For in vitro tests of antiprotozoal activity of the composition five reference organisms representing taxonomic groups to which pathogenic protozoa belong were selected, i.e: • Amoeba proteus—Chaos diffluens—a protozoan of the order Euamoebida, belonging to fifth supergroup of the Amoebozoa, living in waters. • Paramecium caudatum—a slipper animalcule representing the Ciliata orachs, living in waters. • Gregarina blattarum—gregarine isolated from cockroaches, representing the phylum Apicomplexa, living in the digestive tracts or body cavities of invertebrates. • Euglena gracilis—a protozoan living in water, representing the flagellates—Mastigophora, family Euglenaceae. • Trichomonas hominis—a protozoan living in the human colon, representing the Trichomonadidae.
The gregarines were isolated from the cockroaches and, after being placed on a watch slide, were treated with the products at different concentrations in Ringer's solution. Each sample contained ten individuals.
The compositions, negative controls, and positive controls were dissolved in an aqueous solution of polysorbate 80 (0.05%) before application to a watch slide.
Compositions I and II were then analysed for their antiprotozoal properties. […]
Individual acids, catalyst solution, essential oil and metal salt solutions were also analysed for protozoal properties. […] Observation under a fluorescence microscope with phase contrast was carried out.

Assay [3] deals with Amoeba proteus. Description: in vitro protozoicidal test on Amoeba proteus (watch glass, microscope). The note with it: in aqueous polysorbate 80 (0.05%); for LD100: concentration giving death of 100% of individuals within 3 minutes. The format is cell-based.
Assay [4] relates to Paramecium caudatum. Nature of the assay: in vitro protozoicidal test on Paramecium caudatum (watch glass, microscope). The format is cell-based. The note with it: concentration giving death of 100% of individuals within 3 minutes, in aqueous polysorbate 80 (0.05%).
The subject of assay [5] is Trichomonas hominis. Nature of the assay: in vitro protozoicidal test on Trichomonas hominis (watch glass, microscope). The format is cell-based. The following applies: in aqueous polysorbate 80 (0.05%); for LD100: concentration giving death of 100% of individuals within 3 minutes.
Assay [6] concerns Trypanosoma cruzi. The note with it: read-out: inhibitory effect on 50% of the population (IC50), Becco et al. 2012; cited from earlier work.
Assay [7] has as its system Trypanosoma cruzi and Leishmania chagasi. The following applies: Escobar et al. 2010; cited from earlier work.
[8] abbreviates: concentration giving death of 50% of individuals within 3 minutes.

As to “zinc carbonate [Zinc carbonate solution]”, the LD100 is recorded as 0.3% in assay [1]; 0.4% in assay [2]; 0.25% in assay [3]; 0.5% in assay [4]; 0.4% in assay [5].
For the compound “copper carbonate [Copper carbonate solution]”, the LD100 is listed as 0.25% in assay [1], 0.5% in assay [4] and 0.3% in assay [5].
Consider `CC1CS(=O)(=O)CCN1/N=C/c1ccc([N+](=O)[O-])o1` (stereo not shown) [Nifurtimox], for which the IC50 is 6 µM in assay [6] and 0.3 to 0.4 µg/mL in assay [7].
On to `Cc1ncc([N+](=O)[O-])n1CCO` [M, metronidazole, reference compound], for which the LD50 came to 0.13% in assay [2] (lethal concentration for 50% of individuals within 3 minutes), 0.3% in assay [3] (setting [8]) and 0.05% in assay [5] (setting [8]). In addition, the LD100 amounted to 0.3% in assay [2], 0.5% in assay [3] and 0.1% in assay [5].
